Test results as given in US12370198B2, “Pharmaceutical compositions and methods for treating psychiatric disorders” (LA PHARMATECH INC., priority 2022, dated 2025).

Tests used:
[1] = tested on: generalized anxiety disorder (GAD); test: Clinical case treatment of patients with generalized anxiety disorder; format: in vivo, human; conditions: for improvement of GAD reported by patient: Example 1, person
Procedure: A patient was diagnosed with generalized anxiety disorder (GAD) and they had no complaints of having insomnia. […] Then they were treated with the combination of ebastine (20 mg) and alprazolam (1 mg) for 2 weeks. […] The inventors believe the composition of two mechanisms of actions provided a new solution for treating their GAD which could not be treated with alprazolam and the like alone.
A patient with no insomnia symptom order was diagnosed with GAD. The patient was treated with alprazolam (2 mg) for 2 weeks from their first clinic visit and alprazolam (4 mg) for 2 weeks from their second clinic visit. […] On the third clinic visit, the patient was prescribed with the combination of ebastine (10 mg) and alprazolam (4 mg). […] The inventors believe that the two compositions of two mechanisms of actions provided a new solution for treating their […] which could not be treated with other options.

REM sleep = conditions: background studies; cited from earlier work
[2] = tested on: major depressive disorder (MDD); test: Clinical case treatment of patients with major depressive disorder; format: in vivo, human; conditions: for improvement of MDD: alprazolam 5 mg for 2 weeks; for outcome of previous anti-depressant treatment of MDD: Example 2, person; for outcome of previous anti-depressant treatment of MDD / outcome of previous treatments of MDD symptoms: previous treatments; for outcome of previous treatments of MDD symptoms: Example 4, person
Procedure: A patient having no insomnia symptom was diagnosed with major depressive disorder (MDD) showing persistent sadness, loneliness, helpless, and hapless. […] Then they were prescribed with a combination of ebastine (30 mg) and alprazolam (5 mg) for 4 weeks.
A patient with no insomnia symptom was diagnosed with major depressive disorder (MDD) with persistent sadness, lack of interest, and feeling lonely. […] Then they were treated with a combination of ebastine (30 mg) and alprazolam (0.5 mg) for 4 weeks from the second clinic visits.

[3] = tested on: premenstrual dysphoric disorder (PDD); test: Clinical case treatment of a patient with premenstrual dysphoric disorder; format: in vivo, human
Procedure: A patient with no insomnia symptom was diagnosed with premenstrual dysphoric disorder (PDD) with symptoms of persistent hopelessness, sadness, anxiety and frequent tearfulness on the first clinic visit and was provided with fluoxetine 40 mg for 3 weeks. […] Then the patient was prescribed with the combination of ebastine (20 mg) and alprazolam (2 mg) for 2 weeks.

[4] = tested on: mild chronic depression (MCD); test: Clinical case treatment of a patient with mild chronic depression; format: in vivo, human; conditions: Example 3
Procedure: The patient was prescribed with ebastine 30 mg for 3 weeks from the first clinic visit. […] Then they were prescribed with a combination of ebastine (10 mg) and alprazolam (0.5 mg) for a 4-week treatment.

[5] = tested on: release of prostaglandin D2 (PGD2) and leukotrienes C4/D4 (LTC4/D4); conditions: background statement; cited from earlier work
[6] = tested on: release of cytokines (GM-CSF, tumour necrosis factor-a, interleukin-8); conditions: background statement; cited from earlier work
allergic rhinitis = test: Clinical case treatment of allergic rhinitis; format: in vivo, human; conditions: Example 3, person; ebastine 30 mg for 3 weeks
Procedure: A patient with no insomnia symptom was having allergic rhinitis with itchy nose, mouth and eyes, frequent sneezing, watery eyes and coughing, and runny nose when they were diagnosed with mild chronic depression (MCD) but showing symptoms of sadness, lack of interest, loneliness and helpless, consistent frustration for 4 weeks with failed treatment history of allergic rhinitis. The patient was prescribed with ebastine 30 mg for 3 weeks from the first clinic visit. […] But their symptoms from MCD were persistent. […] Then they were prescribed with a combination of ebastine (10 mg) and alprazolam (0.5 mg) for a 4-week treatment.

Cc1nnc2n1-c1ccc(Cl)cc1C(c1ccccc1)=NC2 [alprazolam, 8-chloro-1-methyl-6-phenyl-4H-s-triazolo[4,3-a][1,4]benzodiazepine]
improvement of GAD reported by patient ([1]; alprazolam 0.5 mg for 2 weeks): no improvement
improvement of GAD reported by patient ([1]; alprazolam 2 mg for 2 weeks): no improvement
improvement of GAD symptoms (anxiety, agitation, sweating, nausea, headaches) ([1]; Example 5, person, alprazolam (2 mg) for 2 weeks): failed to improve
improvement of GAD symptoms (anxiety, agitation, sweating, nausea, headaches) ([1]; Example 5, alprazolam (4 mg) for 2 weeks): failed to improve
REM latency (REM sleep): increases
length of REM periods and frequency of REM burst activities (REM sleep): significantly decreases
improvement of MDD ([2]; Example 2): no improvement
improvement of MDD ([2]; Example 4): 20%
improvement of PDD symptoms ([3]; Example 6, alprazolam (2 mg) for 2 weeks): failed to improve
improvement of MCD symptoms ([4]; alprazolam 1 mg for 3 weeks): no improvement

CC(NC(C)(C)C)C(=O)c1cccc(Cl)c1 (centres unmarked) [bupropion]
outcome of previous anti-depressant treatment of MDD [2]: failed
outcome of previous treatments of MDD symptoms [2]: failed to improve

CC(C)(C(=O)O)c1ccc(C(=O)CCCN2CCC(OC(c3ccccc3)c3ccccc3)CC2)cc1 [carebastine]
release of PGD2 [5]: inhibits

CNCC[C@H](Oc1cccc2ccccc12)c1cccs1 [duloxetine]
outcome of previous anti-depressant treatment of MDD [2]: failed

CC(C)(C)c1ccc(C(=O)CCCN2CCC(OC(c3ccccc3)c3ccccc3)CC2)cc1 [ebastine, 4-diphenylmethoxy-1-[3-(4-tert-butylbenzoyl)-propyl]piperidine]
release of cytokines, including GM-CSF, tumour necrosis factor-a and interleukin-8 [6]: inhibited
symptoms from MCD ([4]; ebastine 30 mg for 3 weeks): persistent
anti-IgE-induced release of prostaglandin D2 (PGD2) and leukotrienes C4/D4 (LTC4/D4) [5]: significantly inhibits
recovery from allergic rhinitis (allergic rhinitis): complete recovery

CNCCC(Oc1ccc(C(F)(F)F)cc1)c1ccccc1 (centres unmarked) [fluoxetine]
outcome of previous treatments of MDD symptoms [2]: failed to improve
improvement of PDD symptoms ([3]; Example 6, person, fluoxetine 40 mg for 3 weeks): no improvement
